Experimental findings from patent EP0392423A2, “Substituted 1,4-7-10-tetraazacyclotridecanes, method for their preparation and use of the same for labelling substances with radionuclides” (priority 1989, dated 1990) are described below.

Like-named read-outs stand apart in the source and are kept apart here. Some results are limits rather than exact numbers.

The test system of this data set is Transferrin. The conditions noted are these: human, serum. How it is done:
Bei diesen Vergleichsversuchen wurde ¹¹¹In sowohl mit den bekannten 12- und 14-Ring-Cyclamen als auch mit dem erfindungsgemäßen Cyclam aus Beispiel 1 komplexiert und anschließend jeweils der ¹¹¹In-Austausch gegen Transferrin - ein bekanntermaßen gutes Komplexierungsmittel - in humanem Serum bei 37°C untersucht.

For “12-(p-Nitrobenzyl)-1,4,7,10-tetraacetat-1,4,7,10-tetraazacyclotridecan [Beispiel 1]”, the “¹¹¹In-Austausch gegen Transferrin” value reads like this: (12 h) < 0,1%; (120 h) “ca. 1%”.

Dodecatetraacetate [DOTA]: the “¹¹¹In-Austausch gegen Transferrin” value is reported as “ca. 0,3%” (12 h) and “ca. 4%” (120 h).
